Consider 11 substances from patent US9826734B2, “Etherified lactate esters, method for the production thereof and use thereof for enhancing the effect of plant protecting agents” (Clariant International Ltd., priority 2011, dated 2017).

Common to all, as to type: physicochemical
A short description of series [1]: Static surface tension in aqueous systems, Pending Drop Method (DSA10 Goniometer). The following applies: room temperature (20° C.).
Series [2] can be described thus: Dynamic surface tension, bubble pressure method (BP2100 tensiometer). To be noted: surface age 200 milliseconds. The protocol:
The dynamic surface tension was determined via the bubble pressure method (BP2100, tensiometer, Krüss). With a time span relevant for the spray application of agrochemicals in aqueous dilution (referred to as the surface age in the bubble pressure method) of 200 milliseconds, the value of the dynamic surface tension in [mN/m] correlates with the adherence on difficult-to-wet plants such as barley (cereal). A value of 50 mN/m (at 20-21° C.) produces, relative to water (72.8 mN/m), an improvement in the adherence from “zero adherence” to about 50% (Baur P, Pontzen R 2007. Basic features of plant surface wettability and deposit formation and the impact of adjuvants. In: R E Gaskin ed. Proceeding of the 8th International Symposium on Adjuvants for Agrochemicals. Publisher: International Society for Agrochemical Adjuvants (ISAA), Columbus, Ohio, USA). […] The etherified lactate esters are therefore outstandingly suitable for promoting the accommodation of agrochemicals by cereals (with maize, rice, millet), banana, cabbage/oil seed rape, soybean, and other difficult-to-wet crop plants and weed plants. The positive wetting and sticking effects also apply, of course, for other organisms and artificial surfaces and/or technical applications, for the purpose, for instance, of achieving thin coatings on, or cleaning, surfaces.

Series [3] can be described thus: Foam behavior, foam test of CIPAC Method MT47. To be noted: 3 g/l, CIPAC D water (342 ppm). An excerpt:
The important properties of interface-active substances include the foam behavior, particularly in aqueous systems. Virtually all surfactants foam, and the time to collapse of the foam has to be shortened in the case of critical (highly foaming) surfactants through addition of defoamers to formulation or to aqueous use preparation. The foam behavior of certain of the substances of the invention was characterized, using aqueous solutions at a concentration of 3 g/l, by the foam test of CIPAC Method MT47.

In the case of 2-ethylhexyl lactate 2EO, the Static surface tension in series [1] (0.3 g/l in water) is listed as 45.34 mN/m; in series [1] (3 g/l in water), 28.19 mN/m. The Dynamic surface tension in series [2] (0.3 g/l in water) is recorded as 50.9 mN/m; in series [2] (3 g/l in water), 26.8 mN/m. Also, the Percentage foam volume in series [3] (10 s), in series [3] (60 s), in series [3] (3 min) and in series [3] (12 min) was 5% throughout.
As to 2-ethylhexyl lactate 2PO/2EO, the Static surface tension in series [1] (0.3 g/l in water) stood at 40.40 mN/m; in series [1] (3 g/l in water), 29.47 mN/m. Moreover, the Dynamic surface tension in series [2] (0.3 g/l in water) stood at 47.8 mN/m; in series [2] (3 g/l in water), 30.7 mN/m. In addition, the Percentage foam volume was found to be 2% in series [3] (10 s), 2% in series [3] (60 s), 0% in series [3] (3 min) and 0% in series [3] (12 min).
Consider 2-ethylhexyl lactate 2PO/5EO, for which the values for the Static surface tension in series [1] (0.3 g/l in water) and in series [1] (3 g/l in water) were 43.35 mN/m and 28.48 mN/m, respectively. The Dynamic surface tension in series [2] (0.3 g/l in water) is given as 50.7 mN/m; in series [2] (3 g/l in water), 29.6 mN/m. Moreover, the Percentage foam volume in series [3] (10 s) stood at 25%; in series [3] (60 s), 10%; in series [3] (3 min), 10%; in series [3] (12 min), 10%.
Turning to 2-ethylhexyl lactate 2PO/10EO, the Static surface tension in series [1] (0.3 g/l in water) is given as 47.43 mN/m; in series [1] (3 g/l in water), 36.0 mN/m. Also, the Dynamic surface tension in series [2] (0.3 g/l in water) is given as 54.2 mN/m; in series [2] (3 g/l in water) it was 37.4 mN/m. The Percentage foam volume in series [3] (10 s) is reported as 50%; in series [3] (60 s) it was 10%; in series [3] (3 min), 0%; in series [3] (12 min) it was 0%.
In the case of 2-ethylhexyl lactate 5EO, the Static surface tension in series [1] (0.3 g/l in water) stood at 48.65 mN/m; in series [1] (3 g/l in water), 32.61 mN/m. The figures for the Dynamic surface tension in series [2] (0.3 g/l in water) and in series [2] (3 g/l in water) were 54.4 mN/m and 35.3 mN/m, respectively. The Percentage foam volume in series [3] (10 s) amounted to 50%; in series [3] (60 s) it was 40%; in series [3] (3 min), 20%; in series [3] (12 min), 10%.
On to 2-ethylhexyl lactate 10EO, for which the values for the Static surface tension in series [1] (0.3 g/l in water) and in series [1] (3 g/l in water) were 52.99 mN/m and 35.18 mN/m, respectively. For the same substance, the Dynamic surface tension in series [2] (0.3 g/l in water) was found to be 56.6 mN/m; in series [2] (3 g/l in water), 46.6 mN/m. For the same substance, the Percentage foam volume in series [3] (10 s) came out at 10%; in series [3] (60 s), 5%; in series [3] (3 min), 5%; in series [3] (12 min) it was 0%.
For the substance 2-ethylhexyl lactate 15EO, the Static surface tension in series [1] (0.3 g/l in water) stood at 54.33 mN/m; in series [1] (3 g/l in water) it was 42.23 mN/m. The Dynamic surface tension is 58.6 mN/m in series [2] (0.3 g/l in water) and 48.1 mN/m in series [2] (3 g/l in water). For the same substance, the Percentage foam volume in series [3] (10 s), in series [3] (60 s), in series [3] (3 min) and in series [3] (12 min) was 0% each time.
Lauryl lactate 5EO/2PO: the Static surface tension in series [1] (0.3 g/l in water) was found to be 31.63 mN/m; in series [1] (3 g/l in water), 31.34 mN/m. Besides, the Dynamic surface tension in series [2] (0.3 g/l in water) is 51.9 mN/m; in series [2] (3 g/l in water) it was 37.4 mN/m.
For Lauryl lactate 5EO/5PO the same measures were 31.65 mN/m, 30.14 mN/m, 52.7 mN/m and 36.5 mN/m.
As for Lauryl lactate 8EO/2PO, the results for the Static surface tension in series [1] (0.3 g/l in water) and in series [1] (3 g/l in water) were 30.76 mN/m and 30.71 mN/m, respectively. In addition, the Dynamic surface tension worked out at 54.3 mN/m in series [2] (0.3 g/l in water) and 37.7 mN/m in series [2] (3 g/l in water).
Lauryl lactate 8EO/5PO: the figures for the Static surface tension in series [1] (0.3 g/l in water) and in series [1] (3 g/l in water) were 31.38 mN/m and 31.51 mN/m, respectively. Moreover, the Dynamic surface tension in series [2] (0.3 g/l in water) was found to be 50.9 mN/m; in series [2] (3 g/l in water) it was 36.2 mN/m.
